Target: T1, 15-PGDH de type 1 (Homo sapiens, UniProt P15428)
T1 construct: made in house
T1 sequence (P15428 1-266): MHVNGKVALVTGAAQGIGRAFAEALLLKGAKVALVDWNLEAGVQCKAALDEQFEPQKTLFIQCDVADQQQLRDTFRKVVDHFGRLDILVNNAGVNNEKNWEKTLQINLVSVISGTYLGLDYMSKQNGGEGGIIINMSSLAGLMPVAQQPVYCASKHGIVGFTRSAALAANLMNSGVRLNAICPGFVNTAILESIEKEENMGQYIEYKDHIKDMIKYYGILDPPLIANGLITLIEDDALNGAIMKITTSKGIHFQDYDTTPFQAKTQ
Assay: Test on 15-PGDH type 1: spectrophotometric enzyme inhibition (340 nm, NAD+/PGE2)
Assay type: biochemical
Details: concentration reducing the enzymatic activity of 15-PGDH by 50%; Tris 100 mM pH 7,4, 37°C, 50 µM Prostaglandine E2, 1,5 mM β-NAD
Method: L'enzyme 15-PGDH est obtenue comme décrit dans la demande FR 02/05067 déposée au nom de L'Oréal, en suspension dans un milieu adapté à une concentration de 0,3 mg/mL puis bloquée à - 80°C. Pour les besoins du test, cette suspension est décongelée et stockée dans de la glace.
Par ailleurs on prépare un tampon Tris 100 mM, pH = 7,4, contenant 0,1 mM de dithiothréitol (D5545, Sigma-Aldrich, L'isle D'Abeau Chesne, BP 701, 38297, Saint Quentin Fallavier), 1,5 mM de β-NAD (N6522, Sigma-Aldrich, L'isle D'Abeau Chesne, BP 701, 38297, Saint Quentin Fallavier), 50 µM de Prostaglandine E2 (P4172, Sigma-Aldrich, L'isle D'Abeau Chesne, BP 701, 38297, Saint Quentin Fallavier).
Dans la cuve d'un spectrophotomètre (Perkin-Elmer, Lambda 2) thermostaté à 37°C, dont la longueur d'onde de mesure est réglée à 340 nm, sont introduits 0,965 ml de ce tampon (préalablement porté à 37°C). 0,035 mL de suspension enzymatique à 37°C sont introduits dans la cuve concomitamment à l'enregistrement ( correspondant à une augmentation de la densité optique à 340 nm). La vitesse maximale de réaction est relevée.
Les valeurs essais (contenant les composés de formule (I)) sont comparées à la valeur témoin (sans composé de formule (I)); les résultats indiqués représentent soit le pourcentage d'inhibition de l'activité enzymatique de 15-PGDH pour une concentration donnée de composé de formule (I), soit la concentration à laquelle le composé de formule (I) réduit de 50% l'activité enzymatique de 15-PGDH, à savoir IC50dh.

IC50 [nM]	SMILES
2750	O=C1NC(=O)C(Cc2ccccc2Oc2ccccc2)S1 (stereo not shown) [compound 3]
400	CC(C)(C)c1ccc(Oc2ccccc2CC2SC(=O)NC2=O)cc1 (stereo not shown) [compound 4, 5-[2-(4-tert-butylphenoxy)benzyl]-1,3-thiazolidine-2,4-dione]
1210	O=C1NC(=O)C(Cc2ccccc2Oc2ccc(Cl)cc2Cl)S1 (stereo not shown) [compound 2]
580	CC(C)(C)c1ccc(Oc2cccc(CC3SC(=O)NC3=O)c2)cc1 (stereo not shown) [compound 5]

Reference: patent publication EP1738742A2, “Benzyl-1,3-thiazolidine-2,4-dione compounds, compositions comprising them and use for stimulating or inducing the growth of keratinic fibres and/or for diminsihing their loss” (L'Oreal, priority 2005, dated 2007)
